Source: US20050026833A1, “PSP-94: use for treatment of hypercalcemia and bone metastasis” (priority 2001, published 2005)
“Also recorded” adds a separate entry of the source.

Tests used:
[1] = test system: PTHrP; test: PTHrP immunohistochemistry of skeletal metastasis (vertebrae); type: in vivo, male Copenhagen rats; details: 100.0 ug/kg PCK3145, day 10, vs vehicle
Experimental: For example, vertebral columns were fixed and decalcified for a period of 3 weeks. Vertebral column samples were dewaxed in xylene, and rehydrated through a graded alcohol series (100%-70%). For determining the level of expression of PTHrP by skeletal metastasis, the sections were incubated in 1% normal goat serum (Vector Laboratories Inc., Burlingame, Calif., USA) for 30 min at room temperature before treatment with the primary antibody (polyclonal antiserum against PTHrP (1-34) from rabbit) at 1: 200 dilution overnight at 4° C. Biotinylated goat anti-rabbit IgG (Vector Laboratories Inc., Burlingame, Calif., USA) was used as the secondary antibody at 1:200 for 30 min at room temperature. […]
Computer-Assisted Image Analysis. Computer-assisted image analysis was carried out to quantify PTHrP immunostaining and determination of % TV/BV in the vertebral sections. […] The threshold was set by determining the positive staining of control sections and was used to automatically analyze all recorded images of all samples that were stained in the same session under identical conditions. The area of stained regions was calculated automatically by the software in each microscopic field. Pixel counts of the immunoreaction product were calculated automatically and were given as total density of the integrated immunostaining over a given area. […]

[2] = test system: Mat Ly Lu-PTHrP skeletal metastasis; test: I.C. inoculation skeletal metastasis model, hind limb paralysis; type: in vivo, male Copenhagen rats
Experimental: Animal Protocols. Inbred male Copenhagen rats weighing 200-250g were obtained from Harlan Sprague-Dawley (Indianapolis, Ind.). Before inoculation, Mat Ly Lu-PTHrP tumor cells growing in serum-containing medium were washed with Hanks buffer, trypsinized, and collected by centrifugation at 1500 rpm for 5 min. […] Animals were divided into control groups which received vehicle alone (PBS: phosphate buffered saline) and experimental groups which were infused I.P. with different doses (0.1-10.0 ug/kg/day) of PSP-94 starting at the time of tumor cell inoculation (day 0) until the day of skeletal metastasis development. The time after tumor cell inoculation which was required to develop hind limb paralysis (an index of spinal cord compression due to lumbar vertebrae metastasis) was determined and percentage of starting number of animals developing hind-limb paralysis was plotted.
Alternatively, cell pellets (10×10^3 cells) were resuspended in 100ul saline and injected using 1 ml syringes into the left ventricle of rats anaesthetised with ketamine/xylazine cocktail. […] The time after tumor cell inoculation which was required to develop hind limb paralysis (an index of spinal cord compression due to lumbar vertebrae metastasis) was determined and percentage of starting number of animals developing hind-limb paralysis was plotted. In other sets of experiments, following I.C. tumor cell inoculation, control animals receiving PBS and experimental animals receiving 100.0 ug/kg/day of PCK3145 were sacrificed before the development of hind-limb paralysis (day 10 post tumor cell inoculation) and their vertebral column spanning from L1-L5 was removed and subjected to bone histomorphometric and immunohistochemical analysis as described herein.
Thus, male Copenhagen rats were inoculated via I.C. route into the left ventricle with 10×10^3 Mat Ly Lu-PTHrP cells. Starting on the time of tumor cell inoculation (day 0) animals were infused with different doses of PSP-94 (0.1-10.0 ug/kg/day) until the day of development of hind-limb paralysis as described herein. Animals receiving vehicle alone as control (CTL) or PSP-94 were monitored daily for the development of hind-limb paralysis and % animals not paralyzed at different time points in each group was calculated.
Male Copenhagen rats were inoculated with Mat Ly L u-PTHrP cells (10×10^3) into the left ventricle via I.C. injections. Starting on the day of tumor cell inoculation (day 0), experimental animals received different doses of PCK3145 (1.0-100.0 ug/kg/day) via I.P. route. To evaluate the effect of PCK3145 on delaying the development of experimental skeletal metastasis, animals were evaluated daily by monitoring of the animals for the development of hind-limb paralysis. […]

[3] = test system: Mat Ly Lu-PTHrP cells; test: DNA fragmentation in vitro (agarose gel); type: cell-based, rat; details: PSP-94 10.0 ug/ml, after 72 hours of treatment
Experimental: In order to investigate the underlying molecular mechanism of action of PSP-94 in reducing tumor growth Mat Ly Lu-PTHrP cells were cultured in the presence of PSP-94 (10.0 ug/ml) or vehicle alone for different time intervals. Genomic DNA was collected from cells cultured in the presence of vehicle alone or PSP-94. Briefly, for DNA fragmentation, Mat Ly Lu-PTHRP cells were plated in 6 well plates (Falcon Plastics, Oxnard, Calif.). Cells were treated with PSP-94 (10.0 ug/ml) for up to 72 hours. DNA from treated cells incubated with PSP-94 and cells treated with vehicle alone was collected using a Phenol:Choloroform:lsoamyl alcohol solution (50:48:2). Equal amounts of DNA were subjected to gel electrophoresis on a 2% agarose gel. DNA fragmentation was visualised by UV light using a transilluminator. More particularly, results presented in FIG. 14A show Mat Ly Lu-PTHrP cells cultured in the presence of vehicle alone or PSP-94 (10.0 ug/ml) for up to […]. DNA was isolated and run in an agarose gel, as described above.

## E W Q T D N C E T C T C Y E T (EWQTDNCETCTCYET; PCK3145 (polypeptide 31-45))
[1]
  PTHrP staining in Mat Ly Lu-PTHrP cells of the vertebral column (total density): significantly lower
[2]; 100.0 ug/kg/day PCK3145 I.P. from day 0, vs vehicle
  number of animals developing hind limb paralysis: statistically significant delay
[2]; 1.0 and 10.0 ug/kg/day PCK3145 I.P. (data not shown)
  time of developing hind limb paralysis: no significant effect

B1: PSP-94: prostate secretory protein of 94 amino acids; native human seminal plasma PSP-94 (protein)
chain: SCYFIPNEGVPGDSTRKCMDLKGNKHPINSEWQTDNCETCTCYETEISCCTLVSTPVGYDKDNCQRIFKKEDCKYIVVEKKDPKKTCSVSEWII
[3]
  DNA fragmentation: marked DNA fragmentation
[2]; 10.0 ug/kg/day PSP-94 from day 0, vs vehicle
  number of animals developing hind limb paralysis (delay in skeletal metastasis): statistically significant delay; also recorded: modest (but measurable) delay
[2]; 0.1 and 1.0 ug/kg/day PSP-94 (data not shown)
  time of hind limb paralysis: no significant effect
